Experimental findings from patent US11793827B2, “Adenosine derivative and pharmaceutical composition comprising the same” (Brii Biosciences, Inc., priority 2021, dated 2023) are described below.

Where only a bound is given, the exact number is not on record here.

Series [1] is described as follows: Plasma stability (human plasma). The note with it: for Formation of EFdA at 30 min: human plasma; for half-life at 2 µM: human, pH 7.4. On the procedure: The pooled frozen plasma was thawed in a water bath at 37° C. prior to experiment. Plasma was centrifuged at 4000 rpm for 5 min and the clots were removed if any. The pH will be adjusted to 7.4±0.1 if required.
Preparation of test compounds and positive control (propantheline bromide): 1 mM intermediate solution was prepared by diluting 10 μL of the stock solution with 90 μL MeOH; 1 mM intermediate of positive control Propantheline was prepared by diluting 10 μL of the stock solution with 90 μL ultrapure water. 100 μM dosing solution was prepared by diluting 20 μL of the intermediate solution (1 mM) with 180 μL MeOH. 98 μL of blank plasma was spiked with 2 μL of dosing solution (100 μM) to achieve 2 μM of the final concentration in duplicate and samples were incubated at 37° C. in a water bath. […] Centrifuged sample plates at 4,000 rpm for 10 min. An aliquot of supernatant (100 μL) was transferred from each well to another plates.

Series [2] in a line: Liver S9 stability (human liver S9). The note with it: for half-life at 1 µM: human liver S9, 37° C.; for Formation of EFdA at 30 min: human liver S9, 30 min. It counts as in vitro ADME. On the procedure:
Add 600 μL/well stop solution (cold in 4° C., including 100 ng/mL Tolbutamide/100 ng/mL Labetalol) to terminate the TO plate, then put it on ice. Dispense 840 μL/well S9 solution to 96-well plate as reservoir according to plate map. Then add 100 μL/well to every plate by Apricot. Incubate S9 solution and compound at 37° C. for about 10 min except NCF60 and TO. After adding S9 solution and 98μ LPB buffer to NCF60, incubate at 37° C. without pre-warming, start timer 1. After 60 min, add 600 μL/well stop solution to terminate the reaction. After pre-warming, dispense 760 μL/well cofactor solution to 96-well plate as reservoir according to plate map. Then add 98 μL/well to every plate by Apricot to start reaction. Incubate at 37° C., start timer 2, Add 600 μL/well stop solution (cold in 4° C., including 100 ng/mL Tolbutamide and Labetalol) to terminate the reaction. Samples are centrifuged at 4000 rpm for 20 min. While centrifuging, load 8× new 96-well plate with 300 μL HPLC water, then transfer 100 μL supernatant, mix with water for LC/MS/MS, transferred to Bioanalytical Services for LC-MS/MS analysis. Use equation of first order kinetics [NT]1/2 and CL: Equation of first order kinetics: [formula] [formula] [formula] [formula]

The half-life is how long it takes for the measured level to halve. Lower therefore signals fast loss. As for `C#C[C@]1(COC(=O)OC23CC4CC(CC(C4)C2)C3)O[C@@H](n2cnc3c(N)nc(F)nc32)C[C@@H]1O` [Compound 4, ((2R, 3S, 5R)-5-(6-amino-2-fluoro-9H-purin-9-yl)-2-ethynyl-3-hydroxy-tetrahydrofuran-2-yl)methyl 1-adamantyl carbonate], the “Formation of EFdA at 30 min” value in series [1] and in series [2] was “Yes” each time. Besides, the half-life at 2 µM in series [1] (pooled plasma) was over 200 min. The half-life at 1 µM in series [2] was under 50 min.

Turning to `C#C[C@]1(COC(=O)OC23CC4CC(CC(C4)C2)C3)O[C@@H](n2cnc3c(N)nc(F)nc32)C[C@@H]1OC(=O)OC12CC3CC(CC(C3)C1)C2` [Compound 6, (((2R,3S,5R)-3-((((1-adamantyl)oxy)carbonyl)oxy)-5-(6-amino-2-fluoro-9H-purin-9-yl)-2-ethynyltetrahydrofuran-2-yl)methyl) 1-adamantyl carbonate], the “Formation of EFdA at 30 min” value in series [1] was “No”. In series [1] (pooled plasma), this compound had a half-life at 2 µM of over 200 min. Besides, in series [2], the half-life at 1 µM was under 50 min and the “Formation of EFdA at 30 min” value was “Yes”.

Take `C#C[C@]1(CO)O[C@@H](n2cnc3c(N)nc(F)nc32)C[C@@H]1OC(=O)OCCC12CC3CC(CC(C3)C1)C2` [Compound 8, ((2R,3S,5R)-5-(6-amino-2-fluoro-9H-purin-9-yl)-2-ethynyl-2-(hydroxymethyl)tetrahydrofuran-3-yl) 2-(1-adamantyl)ethyl carbonate]: the “Formation of EFdA at 30 min” value in series [1] and in series [2] was “Yes” throughout. Moreover, in series [1] (pooled plasma), the half-life at 2 µM was in the range of 50 to 200 min. Besides, the half-life at 1 µM in series [2] was under 50 min.

With `C#C[C@]1(COC(=O)OCCC23CC4CC(CC(C4)C2)C3)O[C@@H](n2cnc3c(N)nc(F)nc32)C[C@@H]1OC(=O)OCCC12CC3CC(CC(C3)C1)C2` [Compound 9, ((2R,3S,5R)-2-((((2-(1-adamantyl)ethoxy)carbonyl)oxy)methyl)-5-(6-amino-2-fluoro-9H-purin-9-yl)-2-ethynyltetrahydrofuran-3-yl) 2-(1-adamantyl)ethyl carbonate], in series [1], the “Formation of EFdA at 30 min” value is recorded as “No”. In addition, the half-life at 2 µM in series [1] (pooled plasma) is over 200 min. Besides, in series [2], the half-life at 1 µM is under 50 min and the “Formation of EFdA at 30 min” value is recorded as “Yes”.

For `C#C[C@]1(COC(=O)CCC23CC4CC(CC(C4)C2)C3)O[C@@H](n2cnc3c(N)nc(F)nc32)C[C@@H]1O` [Compound 14, ((2R, 3S, 5R)-5-(6-amino-2-fluoro-9H-purin-9-yl)-2-ethynyl-3-hydroxy-tetrahydrofuran-2-yl)methyl 3-(1-adamantyl)propanoate], the “Formation of EFdA at 30 min” value in series [1] is reported as “Yes”. In series [1] (pooled plasma), this compound returned a half-life at 2 µM of under 50 min. Further, in series [2], the half-life at 1 µM was under 50 min and the “Formation of EFdA at 30 min” value was “Yes”.

For `C#C[C@]1(COC(=O)CCCC23CC4CC(CC(C4)C2)C3)O[C@@H](n2cnc3c(N)nc(F)nc32)C[C@@H]1O` [Compound 15, ((2R, 3S, 5R)-5-(6-amino-2-fluoro-9H-purin-9-yl)-2-ethynyl-3-hydroxy-tetrahydrofuran-2-yl)methyl 4-(1-adamantyl)butanoate], in series [1], the “Formation of EFdA at 30 min” value was “Yes”. In addition, the half-life at 2 µM in series [1] (pooled plasma) was under 50 min. Also, in series [2], the half-life at 1 µM was under 50 min and the “Formation of EFdA at 30 min” value is “Yes”.

Turning to `C#C[C@@]12COC(=O)CCCCCOC(=O)O[C@H]1C[C@H](n1cnc3c(N)nc(F)nc31)O2` [Compound 17, (11aR,13R,14aS)-13-(6-amino-2-fluoro-9H-purin-9-yl)-11a-ethynyloctahydro-11H-furo[3,2-d][1,3,7]trioxacyclotridecine-2,9(4H)-dione], the “Formation of EFdA at 30 min” value in series [1] is on record as “Yes”. The half-life at 2 µM in series [1] (pooled plasma) is over 200 min. Moreover, in series [2], the half-life at 1 µM was under 50 min and the “Formation of EFdA at 30 min” value is recorded as “Yes”.

With `C#C[C@]1(COC(=O)OCCC23CC4CC(CC(C4)C2)C3)O[C@@H](n2cnc3c(N)nc(F)nc32)C[C@@H]1OC(=O)OCC` [Compound 18, ((2R,3S,5R)-2-((((2-(1-adamantyl)ethoxy)carbonyl)oxy)methyl)-5-(6-amino-2-fluoro-9H-purin-9-yl)-2-ethynyltetrahydrofuran-3-yl) ethyl carbonate], the “Formation of EFdA at 30 min” value in series [1] is recorded as “No”; in series [2] it was “Yes”. Further, the half-life at 2 µM in series [1] (plasma) was under 50 min. For the same compound, in series [2], the half-life at 1 µM was under 50 min.

In the case of `C#C[C@]1(COC(=O)OCCC23CC4CC(CC(C4)C2)C3)O[C@@H](n2cnc3c(N)nc(F)nc32)C[C@@H]1OC(=O)C(C)C` [Compound 19, ((2R,3S,5R)-2-((((2-(1-adamantyl)ethoxy)carbonyl)oxy)methyl)-5-(6-amino-2-fluoro-9H-purin-9-yl)-2-ethynyltetrahydrofuran-3-yl) isobutyrate], the “Formation of EFdA at 30 min” value in series [1] was “No”. In series [1] (pooled plasma), this compound gave a half-life at 2 µM of under 50 min. In series [2], the half-life at 1 µM was under 50 min and the “Formation of EFdA at 30 min” value was “Yes”.

For `C#C[C@]1(COC(=O)OCCCC23CC4CC(CC(C4)C2)C3)O[C@@H](n2cnc3c(N)nc(F)nc32)C[C@@H]1OC(=O)C(C)C` [Compound 21, ((2R,3S,5R)-2-((((3-(1-adamantyl)propoxy)carbonyl)oxy)methyl)-5-(6-amino-2-fluoro-9H-purin-9-yl)-2-ethynyltetrahydrofuran-3-yl) isobutyrate], the “Formation of EFdA at 30 min” value in series [1] is on record as “Yes”. This compound also had a half-life at 2 µM in series [1] (pooled plasma) of 50 to 200 min. Besides, in series [2], the half-life at 1 µM was under 50 min and the “Formation of EFdA at 30 min” value is reported as “Yes”.

Take `C#C[C@]1(COC(=O)OCCCC23CC4CC(CC(C4)C2)C3)O[C@@H](n2cnc3c(N)nc(F)nc32)C[C@@H]1OC(=O)OCCCC12CC3CC(CC(C3)C1)C2` [Compound 22, ((2R,3S,5R)-3-[3-(1-adamantyl)propoxycarbonyloxy]-5-(6-amino-2-fluoro-9H-purin-9-yl)-2-ethynyl-tetrahydrofuran-2-yl)methyl 3-(1-adamantyl)propyl carbonate]: the figures for the “Formation of EFdA at 30 min” value in series [1] and in series [2] were “No” and “Yes”, respectively. For the same compound, the half-life at 2 µM in series [1] (pooled plasma) is over 200 min. For the same compound, the half-life at 1 µM in series [2] was in the range of 50 to 200 min.

For `C#C[C@]1(COC(=O)OCC23CC4CC(CC(C4)C2)C3)O[C@@H](n2cnc3c(N)nc(F)nc32)C[C@@H]1OC(=O)OCC12CC3CC(CC(C3)C1)C2` [Compound 23, ((2R,3S,5R)-3-(1-adamantylmethoxycarbonyloxy)-5-(6-amino-2-fluoro-9H-purin-9-yl)-2-ethynyl-tetrahydrofuran-2-yl)methyl 1-adamantylmethyl carbonate], the “Formation of EFdA at 30 min” value in series [1] is “No”. Further, the half-life at 2 µM in series [1] (pooled plasma) was over 200 min. Also, in series [2], the half-life at 1 µM was under 50 min and the “Formation of EFdA at 30 min” value was “Yes”.

Consider `C#C[C@]1(COC(=O)OCC23CC4CC(CC(C4)C2)C3)O[C@@H](n2cnc3c(N)nc(F)nc32)C[C@@H]1OC(=O)OCC` [Compound 24, ((2R,3S,5R)-2-(1-adamantylmethoxycarbonyloxymethyl)-5-(6-amino-2-fluoro-9H-purin-9-yl)-2-ethynyl-tetrahydrofuran-3-yl) ethyl carbonate], for which, in series [1], the “Formation of EFdA at 30 min” value is “Yes”. In addition, the half-life at 2 µM in series [1] (plasma) was 50 to 200 min. Moreover, in series [2], the half-life at 1 µM was under 50 min and the “Formation of EFdA at 30 min” value was “Yes”.

Take `C#C[C@]1(COC(=O)OCCCCC23CC4CC(CC(C4)C2)C3)O[C@@H](n2cnc3c(N)nc(F)nc32)C[C@@H]1OC(=O)OCC` [Compound 25, ((2R,3S,5R)-2-[4-(1-adamantyl)butoxycarbonyloxymethyl]-5-(6-amino-2-fluoro-9H-purin-9-yl)-2-ethynyl-tetrahydrofuran-3-yl) ethyl carbonate]: the “Formation of EFdA at 30 min” value in series [1] and in series [2] was “Yes” in each case. This compound also had a half-life at 2 µM in series [1] (plasma) of 50 to 200 min. In addition, the half-life at 1 µM in series [2] is under 50 min.

On to `C#C[C@]1(COC(=O)OCCCC23CC4CC(CC(C4)C2)C3)O[C@@H](n2cnc3c(N)nc(F)nc32)C[C@@H]1OC(=O)OCC` [Compound 26, ((2R,3S,5R)-2-[3-(1-adamantyl)propoxycarbonyloxymethyl]-5-(6-amino-2-fluoro-9H-purin-9-yl)-2-ethynyl-tetrahydrofuran-3-yl) ethyl carbonate], for which the “Formation of EFdA at 30 min” value in series [1] and in series [2] was “Yes” each time. In addition, in series [1] (plasma), the half-life at 2 µM was under 50 min. Also, the half-life at 1 µM in series [2] is under 50 min.
